The numbers were not newly measured in US11135271B2, “Glucagon derivatives with improved stability” (HANMI PHARM. CO., LTD., priority 2014, dated 2021), which cites them from elsewhere.

The conditions of data set [1]: according to reports.
The conditions of data set [2]: when taken for 1 year.

As to `Cc1c(C(=O)NN2CCCCC2)nn(-c2ccc(Cl)cc2Cl)c1-c1ccc(Cl)cc1` [Rimonabant], the side-effect result in data set [1] is given as “central nervous system disorder”.

`CCCCCCCCCCC[C@@H](C[C@@H]1OC(=O)[C@H]1CCCCCC)OC(=O)[C@H](CC(C)C)NC=O` [Orlistat]: in data set [2], the weight loss entry was “about 4 kg”. As for `CC(C)CC(N(C)C)C1(c2ccc(Cl)cc2)CCC1` (stereo not drawn) [Sibutramine], in data set [1], the side-effect entry is recorded as “cardiovascular side-effects”.
